Experimental data as given in a melting point compilation (Tetko et al.; mined from patent text by program, amines drawn as free bases though some values may be those of a salt).

| melting point | Structure (SMILES) |
| --- | --- |
| 127 to 128 °C | O=[N+]([O-])c1ccc(S(=O)(=O)NCCc2ccccc2)c([N+](=O)[O-])c1 |
| 183 to 184 °C | NC(=O)NCc1ccc2c(c1)OCO2 |
| 71 to 72 °C | Cn1ccnc1N=Cc1ccccc1 |
| 150 to 152 °C | CC(O)=C(C(=O)OC(c1ccccc1)c1ccccc1)N1C(=O)C(NC(=O)COc2ccccc2)C1SS(=O)(=O)c1ccc(C)cc1 (stereo not given) |
| 166 °C | CC(C)OC(=O)c1cc(-c2ccccc2)c(=O)n2c1-c1sccc1CC2 |
| 100 to 101 °C | CCc1cc(C)cc(CC)c1C1C(=O)C2CC(C3OCCCO3)CC2C1=O (stereo not given) |
| 270 to 271 °C | Cc1cc(C#N)cc(C(=O)c2[nH]c(=O)[nH]c(=O)c2C(C)(C)C)c1 |
| 144 °C | CCC(Oc1ccc2c(-c3ccc(Cl)cc3)noc2c1)C(=O)O (stereo not given) |
| 223 °C | OCC1OC(n2c(Cl)nc3cc(Cl)c(Cl)cc32)C(F)C1O (stereo not given) |
| 94 to 96 °C | O=C1C(=Cc2ccsc2)CCc2cc(OCCc3c[nH]cn3)ccc21 |
| 80 to 84 °C | COC(CN(C)C(=O)Nc1cc(C(C)(C)C)on1)OC |
| 141 °C | O[C@H]1CCC[C@H]1Oc1cccc2onc(OCC3CCN(CC4(O)CCOCC4)CC3)c12 (relative stereo) |
| 171 to 172 °C | c1cnc2c(c1)NCc1cccn1C2 |
| 147 to 149 °C | CC(C)[C@H](C[C@H](O)[C@H](C)NC(=O)OC(C)(C)C)C(=O)NCc1cccnc1 |
| 106 °C | Cc1cc(O)ccc1-c1cc2ccccc2[nH]1 |
| 178 to 180 °C | Nn1c(C2CCCCC2)nnc(-c2ccccc2)c1=O |
| > 290 °C | Cc1ccc2c(c1)N(CC(=O)c1cccs1)C(=O)C(NC(=O)Nc1cccc(C(=O)O)c1)CN2C(=O)c1cccs1 (stereo not given) |
| 148 °C | O=C(c1nc2ccc(O)cc2[nH]1)N1CCC(=Cc2ccccc2)CC1 |
| 126 to 128 °C | COc1cc(C(C)C)c2c(c1)S(=O)(=O)N(COc1cc(-c3ccccc3)nn1C)C2=O |
| 314 to 315 °C | NNc1cc(=O)[nH]c(N)n1 |
| 138 to 139 °C | CCCCc1nc2cccc(C(=O)OCC)c2n1Cc1ccc(-c2ccccc2-c2nnn[nH]2)cc1 |
| 314 to 315 °C | COc1ccccc1-n1c(=O)[nH]c2c(C(N)=O)nc(Nc3ccccc3O)nc21 |
| 153 to 155 °C | CC1CCC(NC(=O)NS(=O)(=O)c2ccc(CCNC(=O)N3CC4CCCCC4C3=O)cc2)CC1 (stereo not given) |
| 254 to 256 °C | CN1CCC(c2c[nH]c3ccc(NS(=O)(=O)c4cccc5ccccc45)cc23)CC1 |

| melting point | Structure (SMILES) |
| --- | --- |
| 96 to 98 °C | CNC(=O)OC(C)C(=O)Nc1ccc(C2=NNC(=O)CC2C)cc1 (stereo not given) |
| 158 °C | O=c1[nH]c2ccccc2n1CCCN1CCNCC1 |
| 197 to 199 °C | NC(=O)Cc1nc(C(=O)c2ccc(F)cc2)no1 |
| 220 to 221 °C | CNc1nc(-c2ccc(Cl)c(Cl)c2)cs1 |
| 145 to 146 °C | Cc1c(C)c2c(c(C)c1NC(=O)NCCCCO)C(c1ccc(C(C)C)cc1)CO2 (stereo not given) |
| 171 to 174 °C | C=CCn1c(S)nc2c(cnn2C)c1=O |
| 115 to 118 °C | CC(C)N(O)C(=O)c1c([Si](C)(C)C)sc2ccccc12 |
| 155 to 158 °C | O=c1c(-c2ccccc2)c(CNc2ncnc3[nH]cnc23)oc2ccccc12 |
| 153 to 155 °C | N#Cc1ccc2[nH]cc(C3CCC4(CC3)OCCO4)c2c1 |
| 94 to 95 °C | COC(=O)CCC(=O)c1ccc(-c2ccc(Br)cc2F)cc1 |
| 169 to 171 °C | O=C(O)CCNC(=O)NCCCN1CCN(c2ccccc2)CC1 |
| 131 to 132 °C | O=S(=O)(Nc1ccc2c(OCc3csc(-c4ccc(OC(F)(F)F)cc4)n3)cccc2c1)C(F)(F)F |
| 40 to 42 °C | C[C@@H]1CCCN1CCCOc1ccc(C(=O)Cc2ccccn2)cc1 |
| 206 to 208 °C | CCC1CCc2cc3c(cc2C1)C(=O)c1cccc(OC)c1C3=O (stereo not given) |
| 82 to 83 °C | CC(C)c1nn(-c2ccc(C(F)(F)F)cn2)cc1CCCOc1cccc(CC(=O)O)c1 |
| 205 to 207 °C | N#Cc1cc2c(cc1F)S(=O)(=O)N=CN2C1CC1 |
| 216 to 218 °C | CC(C)c1c(-c2ccccc2)[nH]c2nccnc12 |
| 191 to 193 °C | COc1ccc2nc(-c3ccc(N)cc3)sc2c1 |
| 106 to 107 °C | CCCCC(=O)Nc1ccc(C(=O)OC)cc1[N+](=O)[O-] |
| 138 to 139 °C | CCOC(=O)Cn1c(-c2ccc(Br)cc2)nc2cccnc21 |
| 243 to 245 °C | N#CSc1cc(Cl)c(Cl)c2sc(NC(=O)Nc3ccc(Br)cc3)nc12 |
| 226 to 227 °C | COc1cc2onc(N)c2cc1Br |
| 70 to 72 °C | CON(C(=O)c1cn(C)nc1C(F)F)C(C)Cc1c(Cl)sc(Cl)c1Cl (stereo not given) |
| 48 to 51 °C | CCOc1ccc(C23CC2CN(C=O)C3)cc1 (stereo not given) |

Further lines, the compound ahead of its results:

| Structure (SMILES) | melting point |
| --- | --- |
| CCCN(CCC)CC(=O)Nc1cccc2c1C(=O)c1c(NC(=O)CN(CCC)CCC)cccc1C2=O | 129 to 130 °C |
| N#Cc1nn(-c2c(Cl)cc(C(F)(F)F)cc2Cl)c(N2CCCCC2)c1S(=O)(=O)C(F)(F)F | 153 to 155 °C |
| CC(=O)Nc1nn(C)c2nc3n(c(=O)c12)CCS3 | 250 to 252 °C |
| c1nc(Nc2ccc(N3CCOCC3)cc2)cc(NC2CCCCC2)n1 | 239 to 240 °C |
| CC(Cc1ccc(F)cc1)(NC(=O)CN)c1ccc(F)cc1 (stereo not given) | 130 to 131 °C |
| O=C1COc2ccc(C3=Nc4ccccc4SC3c3ccc(Cl)cc3)cc2N1 (stereo not given) | 153 to 155 °C |
| COC(=O)C(C)(C)Nc1nc(Cl)ccc1[N+](=O)[O-] | 96 to 97 °C |
| CCC(O)(c1ccc(F)cc1)c1ccc(OCc2ccccc2)cc1 (stereo not given) | 56 to 57 °C |
| CCCCCCCCCCCCCCCCOCC(COC(c1ccccc1)(c1ccccc1)c1ccccc1)COS(C)(=O)=O (stereo not given) | 39 °C |
| COc1nnc(C)c(-c2ccc(SC)cn2)c1-c1ncc(Cl)cc1Cl | 147 to 149 °C |
| O=c1c2c[nH]c3cccnc3c-2nn1-c1ccccc1 | 314 to 316 °C |
| Cc1cc(OCC2CO2)c2c3c(c(=O)oc2c1)CCCC3 (stereo not given) | 164 to 165 °C |
| Cc1nc2c3c(c(C(=O)N4CC(F)C4)cc2n1C)CCC1(Cc2ccccc2C1)N3 | 259 to 260 °C |
| COc1cccc(-c2ccnc(Nc3cc(OC)c(OC)c(OC)c3)n2)c1 | 155 to 156 °C |
| CC1(C)NC(=O)N(c2ccc([N+](=O)[O-])cc2C(F)(F)F)C1=O | 175 to 176 °C |
| COc1ccc(N2CCOCC2)c2sc(-c3nc4ccc(N5CCCC5)nc4[nH]3)nc12 | 264 to 268 °C |
| CCC(NC(=NC#N)Nc1ccc(N)nc1)c1ccccc1 (stereo not given) | 178 °C |
| CCc1n[nH]c(C(N)=O)c1NC(=O)c1cc(S(C)(=O)=O)ccc1OCC(C)C | 154 to 162 °C |
| Cc1c(C(F)(F)F)cnn(-c2ccc(Cl)c(C=C(Cl)C(=O)O)c2)c1=O | 168 °C |
| CNC(=O)NS(=O)(=O)c1cc(CCNC(=O)c2cc(C(C)(C)C)ccc2OC)ccc1OC | 209 to 212 °C |
| CCOc1cc2cc3c(c(-c4ccncc4)c2cc1OCC)C(=O)NC3=O | 210 to 213 °C |
| O=C1COc2ccc(C3=Cc4ccc(NCCCO)cc4OC3c3ccccc3)cc2N1 (stereo not given) | 215 to 217 °C |
| O=C(O)C(=O)c1ccc(S(=O)CCOc2ccc3ccccc3c2)cc1 (stereo not given) | 157 to 158 °C |
| CCOc1c(NCc2ccc(Br)cc2CC)c(=O)c1=O | 217 to 224 °C |
| O=C(O)c1c(Br)c(Br)c([N+](=O)[O-])c2c1OCCO2 | 238 °C |
| Nc1cccc(Oc2cccc(Oc3cccc(N)c3)c2)c1 | 105 to 107 °C |

| Structure (SMILES) | melting point |
| --- | --- |
| O=CN(O)C(CO)CS(=O)(=O)c1ccc(Oc2ccc(OC(F)(F)F)cc2)cc1 (stereo not given) | 115 to 117 °C |
| CCCCCCCCCCCCCCCCCCOCC(COC(c1ccccc1)(c1ccccc1)c1ccccc1)OS(=O)(=O)c1ccc(C)cc1 (stereo not given) | 52 to 53 °C |
| COc1cc(CC(C)=O)ccc1OCCCN1CCC(c2noc3cc(F)ccc23)CC1 | 118 to 119 °C |
| CCCc1cn2cc(C(=O)OC)nc2s1 | 155 to 156 °C |
| OCCCSCCSCCCO | 52 °C |
| O=C(COc1cc(C(=O)N2CCOCC2)ccc1[N+](=O)[O-])c1ccccc1 | 172 to 173 °C |
| CCC1(CC)O[C@@H](C(=O)O)[C@H](c2ccccc2)N1C(=O)OC(C)(C)C | 185 °C |
| CC1=NC(Cc2ncc(Br)cn2)C(Br)=CN1 (stereo not given) | 176 °C |
| CC(C)(C)c1cc(C(C)(C)C)c2oc(-c3cccc([N+](=O)[O-])c3O)nc2c1 | 148 to 150 °C |
| CN1C2CCC1CC(c1c[nH]c3cc(F)ccc13)C2 (stereo not given) | 168 to 169 °C |
| CC(=O)NC[C@H]1CN(c2cc(F)c(N3CCSCC3)c(F)c2)C(=O)O1 | 187 to 188 °C |
| COC(=O)c1nc(N(C)C(C)=O)ccc1Oc1nc(OC)cc(OC)n1 | 119 to 121 °C |
| CCCC(=O)N[C@H]1CC[C@H](CCN2CCN(c3nccc4c3CCO4)CC2)CC1 | 191 °C |
| BrC(Br)c1nccnc1C(Br)Br | 167 to 170 °C |
| CC(C)SC(Cc1ccc(OCCN(C)c2nc3ccccc3o2)cc1)C(=O)O (stereo not given) | 144 to 145 °C |
| CC(C)(C)[C@H]1N(c2ccc(C#N)c3ccccc23)C(=O)[C@@H]2C[C@@H](OCc3ccccc3)CN21 | 155 to 157 °C |
| CCCCOc1nsnc1S(C)(=O)=O | 39 to 40 °C |
| COc1ccc(C(=O)c2cc(Br)ccc2N)cc1 | 120 °C |
| Cc1ccc(N2CCN(c3ccc(C(C)(C)O)nc3-c3ccc(C(C)C)cc3)CC2)cc1 | 130 to 133 °C |
| Cn1c(=O)nc(NCCCN2CCN(C(c3ccccc3)c3ccccc3)CC2)c2ccccc21 | 121 to 124 °C |
| CC(C)(C)OC(=O)COCCCCS(=O)(=O)c1cnc(-c2ccccc2)c(-c2ccccc2)n1 | 88 to 90 °C |
| O=C1NCCNC1c1cn(Cc2ccc(Cl)cc2)c2ccccc12 (stereo not given) | 195 °C |
| CNCc1ccc(CSCCNC2=NS(=O)(=O)N=C2NC)o1 | 50 to 56 °C |
| CCOC(=O)C1=C(C)NC(C)=C(C(=O)OCC)C1c1csc2ccc([N+](=O)[O-])cc12 | 255 to 259 °C |
| OC1CSC(Oc2cc(-c3ccnc(F)c3)cc(F)c2F)C(O)C1O (stereo not given) | 184 °C |
| COc1ccc(C2CCC(C(=O)O)CC2)c2c1OCO2 (stereo not given) | 206 to 208 °C |
